# Test results from ChEMBL document CHEMBL5154804, “Species-Selective Targeting of Fungal Hsp90: Design, Synthesis, and Evaluation of Novel 4,5-Diarylisoxazole Derivatives for the Combination Treatment of Azole-Resistant Candidiasis” (J Med Chem, 2022).
# The source made the active and inactive calls. No cut-off for these calls is given here.
# What was measured:
# Candida albicans [1] = experiment: Synergistic antifungal activity against fluconazole-resistant Candida albicans 100 assessed as inhibition of fungal growth in presence of fluconazole by checker board microdilution assay; type: functional
# Candida albicans [2] = experiment: Synergistic antifungal activity against fluconazole-resistant Candida albicans 103 assessed as inhibition of fungal growth in presence of fluconazole by checker board microdilution assay; type: functional
# Candida albicans [3] = experiment: Antifungal activity against fluconazole-resistant Candida albicans 904 assessed as inhibition of fungal growth by checker board microdilution assay; type: functional
# Candida albicans [4] = experiment: Antifungal activity against fluconazole-resistant Candida albicans 632 assessed as inhibition of fungal growth by checker board microdilution assay; type: functional
# Candida albicans [5] = experiment: Antifungal activity against fluconazole-resistant Candida albicans 311 assessed as inhibition of fungal growth by checker board microdilution assay; type: functional
# Candida albicans [6] = experiment: Synergetic antifungal activity against fluconazole-resistant Candida albicans 904 assessed as fractional inhibitory concentration index in presence of fluconazole by checker board microdilution assay; type: functional
# Candida albicans [7] = experiment: Synergetic antifungal activity against fluconazole-resistant Candida albicans 632 assessed as fractional inhibitory concentration index in presence of fluconazole by checker board microdilution assay; type: functional
# Candida albicans [8] = experiment: Synergetic antifungal activity against fluconazole-resistant Candida albicans 103 assessed as fractional inhibitory concentration index in presence of fluconazole by checker board microdilution assay; type: functional
# A549 = experiment: Cytotoxicity against human A549 cell assessed as inhibition of cell growth after 24 hrs by MTT assay; type: functional, cell-based; conditions: A549, 24 h
# [9] = Cytotoxicity against mouse NIH3T3 cell assessed as inhibition of cell growth after 24 hrs by MTT assay; type: toxicity, cell-based; conditions: NIH3T3 cells
# RAW264.7 = experiment: Cytotoxicity against mouse RAW264.7 cell assessed as inhibition of cell growth after 24 hrs by MTT assay; type: functional, cell-based; conditions: RAW264.7, 24 h
# Candida albicans [10] = experiment: Synergistic antibiofilm activity in Candida albicans 904 assessed as downregulation of EFG1 at 32 ug/ml incubated for 24 hrs in presence of fluconazole by RT-PCR analysis; type: functional, organism-based; conditions: dose 32.0 µg/ml
# Candida albicans [11] = experiment: Fungicidal activity against Candida albicans 904 assessed as colony forming at 4 times MIC incubated for 48 hrs by time-kill curve assay; type: functional
# Candida albicans [12] = experiment: Fungicidal activity against Candida albicans 904 assessed as colony forming at 4 times MIC in presence of fluconazole incubated for 48 hrs by time-kill curve assay; type: functional
# [13] = Binding affinity to recombinant Candida albicans Hsp90 NBD expressed in Escherichia coli by SPR assay
# [14] = Metabolic stability in human liver microsomes assessed as half life in presence of NADPH cofactor under shaking condition for 10 mins measured after 5 to 60 mins by LC-MS/MS analysis; type: ADME, Microsome; conditions: time 15-70 min
# [15] = Metabolic stability in human liver microsomes assessed as compound remaining in presence of NADPH cofactor under shaking condition for 10 mins measured after 60 mins by LC-MS/MS analysis; type: ADME, Microsome; conditions: time 70 min, read-out: Stability
# [16] = Stability in human plasma assessed as half life at 120 mins by LC-MS/MS analysis; type: ADME, cell-free
# CYP2C9 = CYP2C9 (Homo sapiens, UniProt P11712); experiment: Inhibition of CYP2C9 in human liver microsome at 10 uM using diclofenac as substrate incubated for 10 mins in presence of NADPH cofactor by LC-MS/MS analysis; type: ADME; conditions: liver microsomes, probe diclofenac
# Sequence of CYP2C9 (P11712 whole entry): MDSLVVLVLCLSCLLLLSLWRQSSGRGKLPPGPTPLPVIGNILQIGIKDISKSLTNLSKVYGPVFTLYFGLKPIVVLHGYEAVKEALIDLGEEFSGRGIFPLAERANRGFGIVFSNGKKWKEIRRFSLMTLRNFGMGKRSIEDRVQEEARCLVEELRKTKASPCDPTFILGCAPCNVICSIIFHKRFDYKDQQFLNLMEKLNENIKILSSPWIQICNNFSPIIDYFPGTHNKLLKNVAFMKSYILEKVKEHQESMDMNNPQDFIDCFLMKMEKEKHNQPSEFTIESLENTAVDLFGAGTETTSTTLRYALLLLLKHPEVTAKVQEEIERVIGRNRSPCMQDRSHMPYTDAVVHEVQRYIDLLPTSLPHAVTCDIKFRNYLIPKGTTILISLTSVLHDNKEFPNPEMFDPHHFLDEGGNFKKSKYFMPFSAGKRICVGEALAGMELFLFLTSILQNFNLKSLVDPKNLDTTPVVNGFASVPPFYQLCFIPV
# CYP2D6 = CYP2D6 (Homo sapiens, UniProt P10635); experiment: Inhibition of CYPD6 in human liver microsome at 10 uM using dextromethorphan as substrate incubated for 10 mins in presence of NADPH cofactor by LC-MS/MS analysis; type: ADME; conditions: liver microsomes, probe dextromethorphan
# Sequence of CYP2D6 (P10635 whole entry): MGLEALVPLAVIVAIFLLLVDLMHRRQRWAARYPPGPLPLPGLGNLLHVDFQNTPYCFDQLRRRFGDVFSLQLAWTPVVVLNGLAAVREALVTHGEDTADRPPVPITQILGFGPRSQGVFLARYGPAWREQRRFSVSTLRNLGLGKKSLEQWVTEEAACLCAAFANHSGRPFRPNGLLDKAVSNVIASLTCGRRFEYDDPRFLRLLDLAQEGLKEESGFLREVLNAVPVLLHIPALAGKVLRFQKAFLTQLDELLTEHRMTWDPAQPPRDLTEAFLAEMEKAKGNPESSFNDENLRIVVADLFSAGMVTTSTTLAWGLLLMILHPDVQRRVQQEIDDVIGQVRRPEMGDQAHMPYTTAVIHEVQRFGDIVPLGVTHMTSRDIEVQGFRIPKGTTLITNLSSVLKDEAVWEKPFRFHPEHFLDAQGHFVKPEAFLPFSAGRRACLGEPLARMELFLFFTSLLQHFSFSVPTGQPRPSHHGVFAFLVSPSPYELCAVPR
# CYP3A4 [17] = target: T1, CYP3A4 (Homo sapiens, UniProt P08684); experiment: Inhibition of CYP3A4 in human liver microsome at 10 uM using midazolam as substrate incubated for 10 mins in presence of NADPH cofactor by LC-MS/MS analysis; type: ADME; conditions: liver microsomes, probe midazolam
# T1 sequence (P08684 whole entry): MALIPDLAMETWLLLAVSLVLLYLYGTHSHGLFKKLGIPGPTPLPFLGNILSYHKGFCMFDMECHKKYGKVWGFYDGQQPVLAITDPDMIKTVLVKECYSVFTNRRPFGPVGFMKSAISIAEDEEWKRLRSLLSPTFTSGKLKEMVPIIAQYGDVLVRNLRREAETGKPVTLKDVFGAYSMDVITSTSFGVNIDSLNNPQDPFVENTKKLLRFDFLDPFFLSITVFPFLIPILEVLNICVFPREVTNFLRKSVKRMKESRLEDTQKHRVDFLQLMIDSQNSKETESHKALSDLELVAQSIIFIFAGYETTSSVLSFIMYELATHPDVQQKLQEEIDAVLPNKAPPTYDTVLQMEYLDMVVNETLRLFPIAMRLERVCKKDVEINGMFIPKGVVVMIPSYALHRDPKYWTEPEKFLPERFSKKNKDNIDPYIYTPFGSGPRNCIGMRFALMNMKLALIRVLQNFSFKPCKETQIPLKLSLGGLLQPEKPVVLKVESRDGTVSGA
# Candida albicans [18] = experiment: Induction of morphological changes in Candida albicans 904 assessed as hyphal formation by measuring TEC1 level incubated for 4 hrs in presence of fluconazole; type: functional, organism-based
# Candida albicans [19] = experiment: Potentiation of fluconazole-induced antifungal activity against fluconazole-resistant Candida albicans 901 assessed as fluconazole MIC by checker board microdilution assay; type: functional
# Candida albicans [20] = experiment: Reversal of fluconazole mediated azole resistance Candida albicans 904 assessed as downregulation of CDR1 at 32 ug/ml in presence of fluconazole by RT-PCR; type: functional, organism-based; conditions: dose 32.0 µg/ml
# Candida albicans [21] = experiment: Reversal of fluconazole mediated azole resistance Candida albicans 904 assessed as downregulation of ERG11 at 32 ug/ml in presence of fluconazole by RT-PCR; type: functional, organism-based; conditions: dose 32.0 µg/ml
# [22] = Metabolic stability in rat liver microsomes assessed as microsomal intrinsic clearance in presence of NADPH cofactor under shaking condition for 10 mins measured after 5 to 60 mins by LC-MS/MS analysis; type: ADME, Microsome; conditions: time 15-70 min
# [23] = Metabolic stability in rat liver microsomes assessed as compound remaining in presence of NADPH cofactor under shaking condition for 10 mins measured after 60 mins by LC-MS/MS analysis; type: ADME, Microsome; conditions: time 70 min, read-out: Stability
# [24] = Stability in rat plasma assessed as compound remaining at 120 mins by LC-MS/MS analysis; type: ADME, cell-free; conditions: read-out: Stability
# CYP2C19 = CYP2C19 (Homo sapiens, UniProt P33261); experiment: Inhibition of CYP2C19 in human liver microsome at 10 uM using S-mephenytoin as substrate incubated for 10 mins in presence of NADPH cofactor and fluconazole by LC-MS/MS analysis; type: ADME; conditions: liver microsomes, probe S-mephenytoin
# Sequence of CYP2C19 (P33261 whole entry): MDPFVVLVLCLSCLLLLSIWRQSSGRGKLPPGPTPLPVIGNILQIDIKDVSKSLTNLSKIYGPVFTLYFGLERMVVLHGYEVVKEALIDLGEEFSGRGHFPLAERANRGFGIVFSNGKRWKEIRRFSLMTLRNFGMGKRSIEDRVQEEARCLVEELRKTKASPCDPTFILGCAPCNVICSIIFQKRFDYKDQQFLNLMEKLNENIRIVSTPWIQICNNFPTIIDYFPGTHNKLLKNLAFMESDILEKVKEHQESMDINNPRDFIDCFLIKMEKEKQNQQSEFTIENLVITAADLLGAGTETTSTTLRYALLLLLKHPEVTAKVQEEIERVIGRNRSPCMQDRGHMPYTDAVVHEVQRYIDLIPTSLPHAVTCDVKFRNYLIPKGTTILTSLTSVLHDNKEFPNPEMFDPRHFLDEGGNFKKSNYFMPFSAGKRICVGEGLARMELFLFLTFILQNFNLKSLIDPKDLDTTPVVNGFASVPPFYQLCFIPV
# CYP3A4 [25] = target: T1, CYP3A4; experiment: Inhibition of CYP3A4 in human liver microsome at 10 uM using midazolam as substrate incubated for 10 mins in presence of NADPH cofactor and fluconazole by LC-MS/MS analysis; type: ADME; conditions: liver microsomes, probe midazolam
# [26] = Half life in Sprague-Dawley rat at 10 mg/kg, iv measured upto 24 hrs by LC/MS/MS analysis; type: ADME, organism-based; conditions: in vivo
# [27] = AUC (0 to infinity) in Sprague-Dawley rat at 10 mg/kg, iv measured at upto 24 hrs by LC/MS/MS analysis; type: ADME, organism-based; parameters: dose 10 mg/kg, time < 24 hrs, route iv; conditions: in vivo
# [28] = C0 in Sprague-Dawley rat at 10 mg/kg, iv measured upto 24 hrs by LC/MS/MS analysis; type: ADME, organism-based; conditions: in vivo
# [29] = Volume of distribution in Sprague-Dawley rat at 10 mg/kg, iv measured upto 24 hrs by LC/MS/MS analysis; type: ADME, organism-based; conditions: in vivo
# [30] = Clearance in Sprague-Dawley rat at 10 mg/kg, iv measured upto 24 hrs by LC/MS/MS analysis; type: ADME, organism-based; conditions: in vivo
# Rattus norvegicus [31] = experiment: In vivo antifungal activity against azole resistant Candida albicans 904 infected in rat assessed as reduction in kidney fungal burden at 10 mg/kg, ip administered for 5 days, qd in presence of fluconazole; type: functional, organism-based; conditions: time 5.0 day
# Rattus norvegicus [32] = experiment: In vivo antifungal activity against azole resistant Candida albicans 904 infected in rat assessed as colonization of fungal cells at 10 mg/kg, ip administered for 5 days, qd by PAS and HE staining based microscopy; type: functional, organism-based; conditions: time 5.0 day
# Rattus norvegicus [33] = experiment: In vivo antifungal activity against azole resistant Candida albicans 904 infected in rat assessed as decrease in fungal invasion at 10 mg/kg, ip in presence of fluconazole administered for 5 days, qd by PAS and HE staining based microscopy; type: functional, organism-based; conditions: time 5.0 day
compound,measurement,setting,value
CNC(=O)c1noc(-c2cc(-c3ccc(C)cc3)c(O)cc2O)c1-c1ccc(CN2CCOCC2)cc1,MIC80,Candida albicans [1],0.25 µg/mL
same,MIC80,Candida albicans [2],1 µg/mL
same,MIC80,Candida albicans [3],> 64 µg/mL
same,MIC80,Candida albicans [4],> 64 µg/mL
same,MIC80,Candida albicans [5],> 64 µg/mL
same,fractional inhibitory concentration index (FICI),Candida albicans [6],0.02
same,fractional inhibitory concentration index (FICI),Candida albicans [7],0.016
same,fractional inhibitory concentration index (FICI),Candida albicans [8],0.047
same,IC50,A549,7.12 µM
same,IC50 at 24 h,[9],8.63 µM
same,IC50,RAW264.7,11.3 µM
same,Activity,Candida albicans [10],Active
same,MFC,Candida albicans [11],> 64 µg/mL
same,MFC,Candida albicans [12],0.5 µg/mL
same,Kd,[13],0.933 µM
same,half-life,[14],24.8 min
same,remaining at 1.167 h,[15],19.1%
same,half-life,[16],> 288 min
same,"inhibition at 10 min, 10 µM",CYP2C9,25.2%
same,"inhibition at 10 min, 10 µM",CYP2D6,86.3%
same,"inhibition at 10 min, 10 µM",CYP3A4 [17],43.2%
same,Activity,Candida albicans [18],Active
same,MIC80,Candida albicans [19],2 µg/mL
CCNC(=O)c1noc(-c2cc(-c3ccc(C)cc3)c(O)cc2O)c1-c1ccc(CN2CCOCC2)cc1,MIC80,Candida albicans [1],0.125 µg/mL
same,MIC80,Candida albicans [2],0.25 µg/mL
same,MIC80,Candida albicans [3],> 64 µg/mL
same,MIC80,Candida albicans [4],> 64 µg/mL
same,MIC80,Candida albicans [5],> 64 µg/mL
same,fractional inhibitory concentration index (FICI),Candida albicans [6],0.035
same,fractional inhibitory concentration index (FICI),Candida albicans [7],0.033
same,fractional inhibitory concentration index (FICI),Candida albicans [8],0.035
same,IC50,A549,13.1 µM
same,IC50 at 24 h,[9],21.3 µM
same,IC50,RAW264.7,17.1 µM
same,Activity,Candida albicans [10],Active
same,MFC,Candida albicans [11],> 64 µg/mL
same,MFC,Candida albicans [12],0.25 µg/mL
same,Activity,Candida albicans [20],Active
same,Activity,Candida albicans [21],Active
same,half-life,[14],32.1 min
same,CLint,[22],45.3 µL/min/mg
same,remaining at 1.167 h,[15],27.4%
same,remaining at 1.167 h,[23],23.6%
same,remaining at 2 h,[24],99.4%
same,half-life,[16],> 288 min
same,"inhibition at 10 min, 10 µM",CYP2C9,36.5%
same,"inhibition at 10 min, 10 µM",CYP2D6,36.9%
same,"inhibition at 10 min, 10 µM",CYP3A4 [17],36.7%
same,"inhibition at 10 min, 10 µM",CYP2C19,56.9%
same,"inhibition at 10 min, 10 µM",CYP3A4 [25],39.3%
same,half-life,[26],75.6 min
same,AUC(0-inf),[27],3030 ng·h/mL
same,C0 at 24 h,[28],4750 ng/mL
same,Vd,[29],11.2 L/kg
same,clearance,[30],102 mL/min/kg
same,Activity,Rattus norvegicus [31],Active
same,Activity,Rattus norvegicus [32],Active
same,Activity,Rattus norvegicus [33],Active
same,Activity,Candida albicans [18],Active
same,MIC80,Candida albicans [19],1 µg/mL
